The values that follow come from patent US20030032676A1, “Drugs for treatment of cerebral injury and methods of use thereof” (priority 2001, published 2003).

Assay [1] deals with reversible MCAo. The assay can be described thus: Infarct volume by TTC staining after reversible MCAo (two hours of MCAo, then reperfusion). The class given is in vivo, rat. The following applies: for Mean volume of the infarct: ±SEM, p<0.05.
Assay [2] has as its system permanent MCAo. The assay is described as follows: Infarct volume by TTC staining after permanent MCAo. The settings on record: 20 mg/kg, maintained by IP injections every 12 h. The class given is in vivo, rat.
The test system of assay [3] is lipid peroxidation. The assay is described as follows: Lipid peroxidation in rat synaptosomal preparation (TBA-reactive substances). The class given is biochemical. The settings on record: initiated by 2.5 μM Fe2SO4 and 500 μM ascorbic acid; rat synaptosomes.
Protocol: Lipid peroxides in sedimented synaptosomal membranes were analyzed by 2-thiobarbituric acid (TBA) with the TBA-reactive substances determined spectrophotometrically (Ohkawa et al., 1979). *P<0.05
Assay [4] has as its system volume-regulated anion channels (VRACs). The assay is described as follows: Blockade of volume-regulated anion channels in vitro.
The test system of assay [5] is nitrotyrosine. The assay is described as follows: Nitrotyrosine production after rMCAo, Western blot of cerebral cortex extracts. The settings on record: 5 mg/kg; 68 kDa protein at 24 hours after rMCAo; P<0.05 compared to vehicle. The class given is in vivo, rat. In general terms: In western blotting, separated proteins are transferred to a membrane and probed.
In assay [6] the test system is EAA release. The assay can be described thus: Glutamate (EAA) release measured by microdialysis during and after ischemia (rMCAo). The settings on record: 5 mg/kg i.v. before rMCAO. The class given is in vivo, rat.
Assay [7] deals with recombinant nNOS (Homo sapiens, UniProt P29475). The following applies: recombinant nNOS and calcium dependent NOS activity in brain homogenates; from Osuka et al., 2001; cited from earlier work.
Chain of recombinant nNOS (P29475 whole entry, species assumed): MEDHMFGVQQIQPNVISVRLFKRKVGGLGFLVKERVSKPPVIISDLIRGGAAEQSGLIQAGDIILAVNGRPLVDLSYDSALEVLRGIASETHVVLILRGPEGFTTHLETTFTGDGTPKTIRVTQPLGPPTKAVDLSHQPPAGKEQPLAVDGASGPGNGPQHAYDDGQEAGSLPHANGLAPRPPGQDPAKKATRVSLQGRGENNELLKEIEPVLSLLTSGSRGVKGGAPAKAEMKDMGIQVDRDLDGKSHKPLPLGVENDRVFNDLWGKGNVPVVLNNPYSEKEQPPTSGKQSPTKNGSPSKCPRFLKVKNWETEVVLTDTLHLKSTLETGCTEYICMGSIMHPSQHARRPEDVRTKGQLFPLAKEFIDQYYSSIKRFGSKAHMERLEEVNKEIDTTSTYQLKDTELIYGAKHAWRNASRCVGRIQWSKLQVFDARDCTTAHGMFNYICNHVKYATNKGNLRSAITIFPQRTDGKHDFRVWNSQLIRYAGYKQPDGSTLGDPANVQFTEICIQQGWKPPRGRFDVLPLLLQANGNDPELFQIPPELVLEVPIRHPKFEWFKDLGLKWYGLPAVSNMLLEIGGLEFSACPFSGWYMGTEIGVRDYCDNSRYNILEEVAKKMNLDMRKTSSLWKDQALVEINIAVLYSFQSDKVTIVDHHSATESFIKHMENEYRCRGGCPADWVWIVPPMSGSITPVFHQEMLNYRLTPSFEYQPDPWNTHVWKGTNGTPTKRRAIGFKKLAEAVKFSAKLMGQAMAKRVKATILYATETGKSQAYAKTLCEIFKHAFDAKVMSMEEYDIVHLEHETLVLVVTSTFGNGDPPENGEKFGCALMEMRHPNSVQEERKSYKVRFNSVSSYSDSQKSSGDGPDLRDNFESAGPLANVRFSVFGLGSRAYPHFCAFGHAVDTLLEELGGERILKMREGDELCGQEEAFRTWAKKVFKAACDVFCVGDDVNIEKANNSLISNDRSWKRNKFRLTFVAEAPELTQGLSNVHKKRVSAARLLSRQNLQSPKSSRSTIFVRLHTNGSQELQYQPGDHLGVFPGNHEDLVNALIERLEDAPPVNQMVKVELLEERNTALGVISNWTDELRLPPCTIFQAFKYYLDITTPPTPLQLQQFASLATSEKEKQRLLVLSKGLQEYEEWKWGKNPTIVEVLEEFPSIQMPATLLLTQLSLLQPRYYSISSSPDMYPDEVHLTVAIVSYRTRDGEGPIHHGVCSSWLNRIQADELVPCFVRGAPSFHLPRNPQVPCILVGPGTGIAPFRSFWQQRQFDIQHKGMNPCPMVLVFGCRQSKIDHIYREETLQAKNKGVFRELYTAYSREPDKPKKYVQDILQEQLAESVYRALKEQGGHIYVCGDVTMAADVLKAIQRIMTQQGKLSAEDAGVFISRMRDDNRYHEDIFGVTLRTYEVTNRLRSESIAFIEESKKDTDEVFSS

As for `CCC(=C(c1ccccc1)c1ccc(OCCN(C)C)cc1)c1ccccc1` (stereo in doubt) [tamoxifen, (Z)-2-[4-(1,2-diphenyl-1-butenyl)phenoxy]-N,N-dimethylethanamine], the Infarct size result in assay [1] (tamoxifen at two and four hours after the infarct, reperfusion) is on record as “essentially identical to the mean for untreated control animals”. The “Mean volume of the infarct” value in assay [1] (tamoxifen given 1 hour after reperfusing after two hours of MCAo, TTC staining 72 h) is reported as 33±13 mm^3. For the same compound, the “Mean volume of the infarct” value in assay [1] (tamoxifen pretreatment, TTC staining 72 h after MCAo) came to 41±21 mm^3. In assay [2], the Infarct volume result was “reduces infarct volumes”. For the same compound, the Lipid peroxidation result in assay [3] was “inhibits lipid peroxidation”. Moreover, the VRAC blockade result in assay [4] was “potently blocks VRACs”. In addition, in assay [5], the “Nitrotyrosine levels after rMCAo” value was “reduces nitrotyrosine levels”. In addition, in assay [6], the Contralateral glutamate levels result is given as “no effect” and the “EAA (glutamate) release during ischemia” value is recorded as “reduces EAA release”. In assay [7], the nNOS activity entry is listed as “inhibits nNOS”.
